From patent publication US7611832B2, “Human G protein-coupled receptor and modulators thereof for the treatment of ischemic heart disease and congestive heart failure” (Arena Pharmaceuticals, Inc., priority 2002, dated 2009) come the findings set out here.

For one assay, the system named is RUP41 mRNA in NRVMs. Briefly: Northern blot of RUP41 mRNA in NRVMs treated with hypertrophic agents. The following applies: 24 hour treatment; PE 100 μM, PMA 100 nM, PGF2α 1 μM, NCS 10%.
Assay [1] relates to RUP41 transcript in neonatal rat ventricular myocytes (NRVMs). The assay is described as follows: RT-PCR of RUP41 transcript in NRVMs treated with hypertrophic agents. It counts as cell-based. The following applies: 24 hours after addition to media; phenylephrine 100 μM, newborn calf serum 10%. The method, then: Total RNA isolated from NRVMs as described above was used as a template for generation of reverse transcribed DNA (RT-DNA) using the RT for PCR kit (Becton Dickenson) according to manufacturers instructions. RUP41 expression was detected in RT-DNA samples by PCR. PCR conditions were 96° C. for 2 min, followed by 30 cycles of 96° C. for 30 sec, 55° C. for 30 sec, and 72° C. for 2 min, followed by 72° C. for 10 min. 20 μl of the reaction was loaded onto 1.5% agarose gel to analyze the RT-PCR products.

In the case of `CCCCCCCCCCCCCC(=O)O[C@@H]1[C@@H](C)[C@@]2(O)[C@@H](C=C(CO)C[C@]3(O)C(=O)C(C)=C[C@@H]23)[C@@H]2C(C)(C)[C@]12OC(C)=O` [phorbol 12-myristate 13-acetate], in the assay with RUP41 mRNA in NRVMs, the “RUP41 mRNA expression (Northern blot)” value is given as “decreased level”.

Regarding prostaglandin F2α, the “RUP41 mRNA expression (Northern blot)” value with RUP41 mRNA in NRVMs is “decreased level”.

`CNC[C@H](O)c1cccc(O)c1` [phenylephrine]: the “RUP41 transcript levels (RT-PCR)” value in assay [1] is “drop dramatically”. Also, the “RUP41 mRNA expression (Northern blot)” value with RUP41 mRNA in NRVMs was “decreased level”.
